Reference: patent US12240869B2, “Inhibitors of cyclin-dependent kinase 7 (CDK7)” (Syros Pharmaceuticals, Inc., priority 2018, dated 2025)

How the values were obtained:
[1] = test system: SCLC cell line (NCI-H1048); test: In vitro combination study, CellTiter-Glo viability, CalcuSyn; type: cell-based; details: 5 days; median effect principle (Chou-Talalay)
Text: (§1) Combination effect is reflected by shift in IC50 of Compound 101 with addition of carboplatin or oxaliplatin or increased antiproliferative effect with lower amounts of either single agent. This is visualized in the isobolograms of FIG. 5, where points below the diagonal line reflect synergy.

[2] = test system: CRC cell line RKO (BRAF p.V600E mutant); test: as above; type: cell-based; details: 5 days
Text: as §1

[3] = test system: HR+ breast cancer cell line MCF7 (PIK3CA p.E545K); test: as above; type: cell-based; details: 5 days
[4] = test system: 12 PDX models representing SCLC, TNBC and HGSOC; test: TGI in 12 PDX models (Example 12); type: in vivo
Experimental: Dosing was initiated when tumors were 150-300 mm^3. […] TGI was calculated on the last day of dosing using the formula: TGI=(Vc1−Vt1)/(Vc0−Vt0), where Vc1 and Vt1 are the mean volumes of control and treated groups at the time of tumor extraction, while Vc0 and Vt0 are the same groups at the start of dosing.

[5] = test system: PDX models BR5010 (TNBC), LU5178 (SCLC), OV15398 (HGSOC); test: Tumor growth inhibition in TNBC, SCLC and HGSOC PDX models (Example 10); type: in vivo, NOD/SCID mice
[6] = test system: CRC cell line SW480 (KRAS p.G12V mutant); test: In vitro combination study, CellTiter-Glo viability, CalcuSyn; type: cell-based; details: 5 days
[7] = test system: HR+ breast cancer cell line T47D (PIK3CA p.H1047R); test: as above; type: cell-based; details: 5 days
[8] = test system: ST390 (modeling pancreatic ductal adenocarcinoma (PDAC)); test: Tumor growth inhibition in PDAC PDX model; type: in vivo; details: 6 mg/kg QD PO, over ~28 days, dose well below the MTD
Experimental: In the PDAC model, Compound 101 was orally administered to tumor-bearing NOD/SCID mice at 6 mg/kg QD. […] The % regression was calculated as: (Mean TV Compound 101 @ EOT)/(Mean TV Compound 101 @ Day 0)×100. The same calculations were used for end of study (day 42).

[9] = test system: palbociclib and fulvestrant double-resistant ER+BC PDX model (ST941); test: Tumor growth inhibition in palbociclib and fulvestrant double-resistant PDX model; type: in vivo, mice; details: fulvestrant 2.5 mg/kg weekly SC
Experimental: (§2) Tumor growth inhibition was evaluated in estrogen receptor-positive breast cancer (ER+BC) PDX models selected in vivo for resistance to the CDK4/6 inhibitor palbociclib (ST1799, n=1) or resistance to both palbociclib and fulvestrant (ST941, n=1). Dosing was initiated when tumors were 100-200 mm^3.

[10] = test system: palbociclib-resistant ER+BC PDX (ST1799) model; test: Tumor growth inhibition in palbociclib-resistant PDX model; type: in vivo, mice; details: last day of 28-day dosing, Compound 101 6 mg/kg QD PO, fulvestrant 2.5 mg/kg weekly SC, palbociclib 50 mpk QD PO
Experimental: as §2

| SMILES | combination effect with carboplatin [1] | combination effect with gemcitabine [1] | combination effect with oxaliplatin ([2]; median effect principle (Chou-Talalay)) | combination effect with trametinib ([2]; BRAF p.V600E mutant CRC) | combination effect with capecitabine ([3]; HR+ MCF-7 cells) | combination effect with alpelisib ([3]; PIK3CA p.E545K) | tolerability / body weight loss ([4]; all once-daily doses tested, tumor-bearing mice) | TGI of deep responses ([4]; subset of models (58%, 7/12), TGI or regression) | MTD ([4]; tumor-bearing mice) | transcriptional responses in xenograft tissue ([5]; after dosing) | TGI, in words ([5]; oral, 21 days, TNBC 10 mg/kg QD or 5 mg/kg BID, SCLC and HGSOC 3 mg/kg BID, followed 21 days after treatment) | combination effect with trametinib [6] | combination effect with alpelisib [7] | TGI [8] | Tumor growth inhibition (TGI) ([9]; last day of 28-day dosing, Compound 101 6 mg/kg QD PO) | Tumor growth inhibition (TGI) [10] | activity (tumor growth inhibition), in words ([9]; palbociclib 50 mpk QD PO) |
| --- | --- | --- | --- | --- | --- | --- | --- | --- | --- | --- | --- | --- | --- | --- | --- | --- | --- |
| CC1(C)CC[C@H](Nc2ncc(C(F)(F)F)c(-c3c[nH]c4c(P(C)(C)=O)c(C#N)ccc34)n2)CN1 [Compound 101, (S)-7-(dimethylphosphoryl)-3-(2-((6,6-dimethylpiperidin-3-yl)amino)-5-(trifluoromethyl)pyrimidin-4-yl)-1H-indole-6-carbonitrile] | showed synergy and was superior to either agent alone | showed synergy and was superior to either agent alone | showed synergy and was superior to either agent alone | significant synergy | showed synergy and was superior to either agent alone | significant synergy | well tolerated, with no evident body weight loss | > 95% | above 10 mg/kg once daily | Dose-dependent transcriptional responses in xenograft tissue were observed within 4 hours of dosing and were sustained for 24 hours | deep and sustained TGI, including regressions | significant synergy | significant synergy | 100% | 33% | 83% | – |
| C[C@]12CC[C@@H]3c4ccc(O)cc4C[C@@H](CCCCCCCCC[S+]([O-])CCCC(F)(F)C(F)(F)F)[C@H]3[C@@H]1CC[C@@H]2O (some centres unmarked) [fulvestrant, reference compound] | – | – | – | – | – | – | – | – | – | – | – | – | – | – | – | – | no activity |
